Tests used:
Conditions in all cases: data not shown
[1] = tested on: A. nosocomialis twitching motility; experiment: Twitching motility, crystal violet stained twitching area; type: cell-based, Acinetobacter nosocomialis
Excerpt: The inhibitors may thus interact with conserved features of the PilB ATPase family. A. nosocomialis PilB ([19]), whose N terminus is not similar to the MshEN domain (data not shown), shares ~53% identity and ~74% homology with MxPilB and MC3PilB in the ATPase domain (Fig. S1). We analyzed whether benserazide and levodopa could impact the T4P-powered twitching motility ([19], [44]) of A. nosocomialis (Fig. 7), an opportunistic pathogen in the Acinetobacter calcoaceticus-Acinetobacter baumannii (ACB) complex ([45]). As shown in Fig. 7A and B and Fig. S7, benserazide and levodopa impede the twitching motility of WT A. nosocomialis in a concentration-dependent manner.
FIG 7 Benserazide and levodopa inhibit Acinetobacter nosocomialis twitching motility and biofilm formation. (A and B) Twitching motility is correlated with the twitching area (cm^2) of the A. nosocomialis wild-type (WT) strain in the presence of (A) benserazide or (B) levodopa, with the control (no inhibitor) normalized to 1. Data are from 3 independent experiments, each performed in triplicates and represented by dots of the same color. (C and D) Biofilms formed by A. nosocomialis with (C) benserazide or (D) levodopa were analyzed by a microplate assay with crystal violet (CV) staining. Results from three independent experiments, each performed in quadruplicates and represented by dots of the same color, are shown. Horizontal lines indicate overall averages, and asterisks (*) signify that values at the indicated concentration are statistically different from those of the control (P < 0.05).
The A. nosocomialis wild-type M2 strain and an isogenic pilA deletion (ΔpilA) mutant ([19], [46]) were used in this study. They were grown and maintained using MacConkey medium at 37°C. The twitching motility of the M2 strain of A. nosocomialis was analyzed with 1% crystal violet (CV) for staining, and twitching areas were used as measures of motility as previously described ([46]). These motility assays were conducted in triplicates and the stained area of the ΔpilA mutant was subtracted from that of the WT for data analysis. A. nosocomialis biofilm formation was analyzed using microplates and CV staining as previously described ([53], [54]). The biofilm assays were conducted in quadruplicate in MacConkey medium with tissue culture-treated microtiter plates (Falcon). CV absorbance (Acv) was measured at 590 nm using Infinite M200 PRO in clear polystyrene 96-well microplates (ExtraGene). Absorbance for each well was read 16 times using Multiple Reads with the average as the final Acv value. Readings from control wells without bacteria were subtracted for normalization. Statistical differences were determined using a Student’s t test.

[2] = biological target: CtPilB (Chloracidobacterium thermophilum, UniProt G2LDI3); experiment: Malachite green ATPase assay, dose response (benchtop); type: biochemical
Protocol: The full-length CtPilB and the CtPilBΔN variant (with the first 139 residues at the N terminus truncated) were purified as preciously described ([29]). The HTS was conducted using 384-well microplates (Greiner, cat no. 781101). Each microwell for the screen contained a 15-μL reaction mixture consisting of 75 nM CtPilB, 0.5 mM ATP, 20 μM of a library compound, and 2% DMSO in activity buffer (50 mM N-tris(hydroxymethyl)methyl-3-aminopropanesulfonic acid [TAPS], 50 mM Tris, 75 mM KCl, 50 mM sodium acetate, 5 mM MgCl2, 50 mM ZnCl2 [pH 8.7]) ([29]). Reaction mixtures were incubated at 55°C for 10 min and transferred to ice for 5 min to stop the enzymatic reaction. MG reagent (50 μL) was added to each well for color development. After a 15-minute incubation, 5 μL of 34% (wt/vol) sodium-citrate (MP Chemicals) was added and the plate was mixed by shaking ([28], [29]). Absorbance at 620 nm (A620) was measured using a SpectraMax M5 microplate reader at room temperature. The HTS was performed at the Virginia Tech Center for Drug Discovery (VTCDD) Screening Laboratory.
The effects of inhibitors on the ATPase activity of CtPilB and CtPilBΔN and the binding of MANT-ATP were determined as described previously ([28], [29]). Stock solutions were prepared by dissolving benserazide hydrochloride (Alfa Aesar) or levodopa (Spectrum Chemical Mfg. Corp.) in dimethyl sulfoxide (DMSO; Fisher Biotech). Next, 10× working stocks for given concentrations of an inhibitor were freshly prepared before their use in an experiment. GraphPad Prism v7.04 was used for curve fitting and Student’s t test was used for statistical analysis.

[3] = tested on: M. xanthus S motility; experiment: T4P-mediated social (S) motility, colony expansion on soft agar; type: cell-based, Myxococcus xanthus
Excerpt: Benserazide and levodopa were examined to determine whether they could impact the T4P assembly function of PilB in vivo using M. xanthus as the model bacterium ([28]). […] Three M. xanthus strains were used for these experiments. Strain DK10416 lacks S motility because it is a pilB deletion (ΔpilB) mutant ([40]). The other two strains both assemble T4P and are proficient in S motility ([30]). Strain YZ1674 produces the wild-type (WT) M. xanthus PilB (MxPilB). YZ2232 expresses MC3PilB, a PilB chimera with the N terminus of MxPilB fused to the C-terminal ATPase domain of CtPilB ([30]). The PilB ATPase domains of MxPilB and MC3PilB are highly similar, with 66% shared identity and 77% similarity (Fig. S1).
FIG 5 Benserazide and levodopa inhibit T4P-mediated social (S) motility in Myxococcus xanthus. Expansion rates (cm/day) of the MxPilB (YZ1674) and the MC3PilB (YZ2232) strains on soft agar plates by S motility in the presence of (A and C) benserazide and (B and D) levodopa after 5 days of incubation. Results from three independent experiments are shown, each performed in quintuplicates with data points represented by dots of the same color. Horizontal black lines represent overall averages. Expansion rates were normalized by subtracting that of the ΔpilB strain, which has no S motility (also see Fig. S4). Asterisks (*) indicate that the values at the indicated concentrations are statistically different (P < 0.05) from those of the no-inhibitor control.
M. xanthus was grown and maintained at 32°C in Casitone-yeast extract (CYE) medium ([49]). Motility assays were conducted with strains DK10416 (ΔpilB) ([40]), YZ1674 (ΔpilB att::MxpilB) ([50]), and YZ2232 (ΔpilB att::MC3pilB) ([30], [51]) as previously described ([28]). One modification was that 10% India ink was included in the cell suspension to mark the initial spot on agar plates. All experiments were conducted in quintuplicates and the diameter of the initial spot, as marked by India ink, was subtracted for data analysis.

CtPilB, sequence (G2LDI3 entry or part of it): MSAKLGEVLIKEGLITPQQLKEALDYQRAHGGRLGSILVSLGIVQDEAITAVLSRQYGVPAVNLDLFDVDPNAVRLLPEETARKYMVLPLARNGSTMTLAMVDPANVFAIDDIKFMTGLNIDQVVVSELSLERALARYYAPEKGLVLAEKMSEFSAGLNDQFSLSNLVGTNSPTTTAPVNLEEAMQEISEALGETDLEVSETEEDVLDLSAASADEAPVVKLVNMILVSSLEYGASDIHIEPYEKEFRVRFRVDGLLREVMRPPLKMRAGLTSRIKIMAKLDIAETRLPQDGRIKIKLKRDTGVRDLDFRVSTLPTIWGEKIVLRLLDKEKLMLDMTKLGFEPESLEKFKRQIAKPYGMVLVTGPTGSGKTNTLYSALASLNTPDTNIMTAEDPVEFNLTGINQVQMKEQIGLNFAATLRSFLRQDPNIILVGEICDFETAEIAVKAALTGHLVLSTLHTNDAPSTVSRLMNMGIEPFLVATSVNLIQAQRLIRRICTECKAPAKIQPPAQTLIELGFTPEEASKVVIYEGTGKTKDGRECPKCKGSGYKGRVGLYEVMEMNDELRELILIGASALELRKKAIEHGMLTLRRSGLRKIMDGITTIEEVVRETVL

N[C@@H](Cc1ccccc1)C(=O)O [phenylalanine]
no inhibitory effect: inhibitory effect on motility of A. nosocomialis in vivo [1] | inhibitory effect on CtPilB in vitro [2] | inhibitory effect on motility of M. xanthus in vivo [3]

N[C@@H](Cc1ccc(O)cc1)C(=O)O [tyrosine, 4-monohydroxyphenylalanine]
no inhibitory effect: inhibitory effect on motility of A. nosocomialis in vivo [1] | inhibitory effect on CtPilB in vitro [2] | inhibitory effect on motility of M. xanthus in vivo [3]
